This is an account of results in PMC5809559, “DYRK1A inhibition and cognitive rescue in a Down syndrome mouse model are induced by new fluoro-DANDY derivatives” (Scientific Reports, 2018).

Data set [1] deals with T1, DYRK1A catalytic domain (DYRK1A-ΔC) (Rattus norvegicus, UniProt Q63470).
T1 construct: The cDNA coding for the catalytic domain (residues 1-502) of rat DYRK1A; 6xHis; made in house; host or cells: E. coli BL21(DE3), pET28
The data set can be described thus: In vitro DYRK1A kinase inhibition, UFLC assay with fluorescent peptide substrate. Format: biochemical. The settings on record: IC50, in vitro inhibition of DYRK1A, 3,5-diaryl-7-azaindoles 5a-5g, Fig. 5.

Data set [2] in a line: Plasma and brain homogenate concentrations after Morris Water Maze (UHPLC-MS/MS). The settings on record: for average plasma concentration: 20 mg/kg i.p. daily, after MWM; for Kp: mouse, brain, intraperitoneal, 20 mg/kg, read-out: partition coefficient at steady state (Kp = brain concentration/plasma concentration). It counts as in vivo, mice. Here is the method: […]. To that end, all animals were sacrificed directly after the Morris Water Maze (MWM) and plasma and brain homogenates (one hemisphere) were extracted and analyzed. […]. […] […]. However, Kp values might be underestimated due to high plasma levels that could saturate efflux transport to the brain.
All plasma and brain homogenate extracts were analyzed by an ultra-high performance liquid chromatography (UHPLC) system coupled to a triple-quadrupole mass spectrometer (Dionex Ultimate 3000 RSLC system coupled to a TSQ Vantage EMR, Thermo Scientific, Les Ulis, France). UHPLC separation was performed using a C18 column (HSS T3, 2.1 mm × 150 mm, 1.7 μm, Waters, Guyancourt, France) equipped with a guard column (HSS T3, 2.1 mm × 5 mm, 1.7 μm, Waters, Guyancourt, France) and maintained at 40 °C. The mobile phases were water, 0.1% formic acid (A) and acetonitrile (B). […]. Injection volume was 4 µL and the autosampler was maintained at 6 °C. Ionization was performed with a heated electrospray ionization source in positive mode. The source parameters were set as follows: spray voltage 3350 V, vaporizer temperature 250 °C, sheath gas (N2) pressure 55 psi, auxiliary gas pressure (N2) 25 psi, capillary temperature 350 °C. Analysis was performed under the Selected Reaction Monitoring (SRM) mode using several transitions for each compound at optimized collision energies (see Table SI2 and Figure SI1). […]. Data acquisition was performed using ThermoScientific Xcalibur 2.1 software system. All samples were analyzed in triplicate.
Two compounds, V[34] (Fig. 9) and 5d, were tested as internal standard (IS). […] Calibration curve points and quality control (QC) points were realized in spiked plasma or brain homogenate samples (Figure SI2). […]. Samples with concentrations above the upper calibration point were diluted to be in the calibration range. Limit of quantification (LOQ) was determined as the lowest point of the calibration curve at 1.6 pg/μL. QC samples were prepared at 14.5 and 58 pg/μL to validate the between-run precision (n = 3, RSD of 13% and 5%, respectively), between-run trueness was 95 and 88% respectively. […]. Limit of quantification (LOQ) was determined as the lowest point of the calibration curve at 1.6 pg/mg. QC samples were prepared at 3.2 and 22.4 pg/mg to validate the between-run precision (n = 3, RSD of 8% and 2% respectively), between-run trueness was 129 and 93% respectively.
Immediately following last day of training in the MWM, mice were sacrificed by decapitation for maximal blood collection and the brain was immediately extracted from the skull, the cerebellum removed and the hemispheres separated and frozen at −80 °C. Plasma was obtained as described above. […]. Subsequently, the IS was added to 400 µL of homogenate which was then centrifuged (12 min, 14000 × g, 4 °C). The supernatant was evaporated and transferred into 40 µL acetonitrile/methanol/water (2/2/1). After centrifugation (12 min, 14000 × g, 4 °C), 4 µL of supernatant was used for UHPLC-MS/MS analysis.

Data set [3] concerns Ts65Dn mice. The data set can be described thus: Morris water maze spatial learning in Ts65Dn and WT mice. It counts as in vivo. From the text: Ts65Dn mice, the best-characterized and most widely used mouse model of DS, are trisomic for a segment of chromosome 16 extending between genes Mrp139 and Znf295 and containing approximately 92 orthologues of human chromosome 21 genes[42] including the Dyrk1a gene. […] Mice were trained for a total of 5 days to learn a fixed spatial goal location in the maze. […] In this paradigm, learning occurred when mice succeeded in decreasing their traveled distances after repeated training trials.
Male Ts65Dn (n = 8) mice and euploid wild-type (WT) littermates (n = 10) were purchased from the Jackson Laboratory (Bar Harbor, Maine, USA). As the recessive retinal degeneration 1 mutation Pde6brd1 in the original Ts65Dn mice causes blindness in homozygotes, we used an alternative strain (SN 5252) that is wild-type for Pde6b, thereby preventing retinal degeneration. Housing conditions comprised a standard cage (air-controlled system) with ad libitum food and water and a 12 h light/dark cycle. Mice received at least one week of habituation to the animal facility, followed by three days of handling (three minutes per mouse per day). […] Treatment was continued during the MWM protocol (mice being injected 30 min before each daily session).
Vehicle consisted of an identical composition without compound 5a.
A white pool with a diameter of 150 cm was filled with water made opaque with non-toxic white paint (Acusol OP301, Rohm and Haas Company, Landskrone, Sweden) and kept at a constant temperature (20–21.5 °C). A 9-cm diameter platform was placed in the south-east (SE) quadrant of the pool, 1 cm under the water surface. The light intensity in the experimental room was kept constant at 70 Lux. Mice were habituated to the room for at least 30 min before starting each daily session. The acquisition phase comprised 5 days of training, four trials per day with an inter-trial interval of at least 20 min to minimize motor fatigue. The order of release positions in the pool was pseudo-randomly at the four cardinal points and changed every day to maximize spatial allocentric training and formation of a “cognitive map”. Each trial ended as soon as the mouse found the platform or after a maximum of 90 s, after which the animal was gently manually guided to the platform. Mice were left on the platform for 20 s before they were gently dried with a towel and individually placed in a cage with paper towels for further drying. The animals returned to their homecage after 5 min.
ANY-maze Video Tracking System (Stoelting, USA) was used to record all trials. Calculated measures included 1) thigmotaxis (percent distance traveled in the 10 cm wide peripheral annulus of the pool) indicative of unsuccessful spatial strategy to locate the platform and 2) the Corrected Integrated Pathway Length (CIPL) an unbiased measure of distance-to-platform travelled taking into account the animal’s speed and the initial distance from the goal for each starting position.

Like-named read-outs stand apart in the source and are kept apart here.

As a reminder, the IC50 is the concentration that gives 50% inhibition.

As for `Oc1ccc(-c2cnc3[nH]cc(-c4ccc(F)cc4)c3c2)cc1O` [Compound 5a, 3-(4-fluorophenyl)-5-(3,4-dihydroxyphenyl)-1H-pyrrolo[2,3-b]pyridine], the IC50 in data set [1] is 20.7 nM. For the same compound, the average plasma concentration worked out at 0.84 ± 0.54 µM in data set [2] (Ts65Dn mice, n = 9) and 0.50 ± 0.28 µM in data set [2] (WT mice, n = 10). Also, the mean brain concentration was 6.67 ± 4.64 µM in data set [2] (Ts65Dn mice, n = 5, assuming vascular space 15 µL/g tissue) and 6.61 ± 5.35 µM in data set [2] (WT mice, n = 4, assuming vascular space 15 µL/g tissue). Besides, the Kp came to 6.43 ± 3.38 in data set [2] (Ts65Dn mice) and 10.8 ± 9.55 in data set [2] (WT mice). For the same compound, the “change of thigmotaxis between vehicle and 5a conditions” value in data set [3] (Ts65Dn mice, 20 mg/kg i.p.) is on record as −12.9%; in data set [3] (WT mice, 20 mg/kg i.p.) it was −6.5%. The “spatial learning performance (CIPL) in Morris water maze” value in data set [3] (Ts65Dn mice, 20 mg/kg i.p. daily, vs vehicle, p < 0.05) is “significant improvement of performance”. For the same compound, in data set [3] (Ts65Dn mice, 20 mg/kg i.p., comparison with 5a-treated WT mice p > 0.99), the “swim speed in Morris water maze” value is “restored normal swim speed”. The “effect on Morris water maze performance” value in data set [3] (wild type mice, 20 mg/kg i.p. daily, vs vehicle) was “no observable effect”.
